Results: ChEMBL document CHEMBL1153850, “Novel derivatives of 6-mercaptopurine: synthesis, characterization and antiproliferative activities of S-allylthio-mercaptopurines” (Eur J Med Chem, 2009)
Calls of active or inactive are those of the source. The rule behind the calls is not given here.

How the values were obtained:
[1] = test system: PBMC; assay: Inhibition of T cell mitogen-induced blastogenesis in human PBMC after 4 days; type: functional, cell-based; details: 96 h
[2] = test system: NCI-N87; assay: Antiproliferative activity against human NCI-N87 cells at 150 uM after 16 hrs by XTT assay; type: functional
[3] = test system: HL-60; assay: Antiproliferative activity against human HL60 cells assessed as [methyl-3H]thymidine incorporation after 16 hrs by XTT assay; type: functional, cell-based; details: HL-60, 16 h
[4] = test system: HT-29; assay: Antiproliferative activity against multidrug-resistant human HT-29 cells assessed as [methyl-3H]thymidine incorporation after 16 hrs by XTT assay; type: functional, cell-based; details: HT-29, 16 h
[5] = test system: U-937; assay: Antiproliferative activity against human U937 cells assessed as [methyl-3H]thymidine incorporation after 16 hrs by XTT assay; type: functional, cell-based; details: U-937, 16 h
[6] = test system: NCI-N87; assay: Antiproliferative activity against human NCI-N87 cells assessed as [methyl-3H]thymidine incorporation after 16 hrs by XTT assay; type: functional, cell-based; details: for IC50: NCI-N87, 16 h
[7] = test system: Daudi; assay: Antiproliferative activity against human Daudi cells assessed as [methyl-3H]thymidine incorporation after 16 hrs by XTT assay; type: functional, cell-based
[8] = test system: NCI-N87; assay: Antiproliferative activity against human NCI-N87 cells assessed as residual proliferation at 50 uM after 16 hrs by XTT assay; type: functional
[9] = test system: NCI-N87; assay: Antiproliferative activity against human NCI-N87 cells assessed as residual proliferation at 100 uM after 16 hrs by XTT assay; type: functional
[10] = test system: Daudi; assay: Antiproliferative activity against human Daudi cells assessed as residual proliferation at 50 uM after 16 hrs by XTT assay; type: functional
[11] = test system: MOLT-4; assay: Antiproliferative activity against human MOLT4 cells assessed as [methyl-3H]thymidine incorporation after 16 hrs by XTT assay; type: functional, cell-based; details: MOLT-4, 16 h
[12] = test system: Jurkat; assay: Antiproliferative activity against human Jurkat cells assessed as [methyl-3H]thymidine incorporation after 16 hrs by XTT assay; type: functional, cell-based
[13] = test system: HeLa; assay: Antiproliferative activity against human HeLa cells assessed as [methyl-3H]thymidine incorporation after 16 hrs by XTT assay; type: functional, cell-based
[14] = test system: Daudi; assay: Antiproliferative activity against human Daudi cells assessed as residual proliferation at 100 uM after 16 hrs by XTT assay; type: functional
[15] = test system: HeLa; assay: Antiproliferative activity against human HeLa cells assessed as cell viability after 16 hrs by [methyl-3H]thymidine incorporation based XTT assay relative to control; type: functional
[16] = test system: HL-60; assay: Antiproliferative activity against human HL60 cells assessed as cell viability after 16 hrs by [methyl-3H]thymidine incorporation based XTT assay relative to control; type: functional
[17] = Induction of apoptosis in human B-CLL cells after 48 hrs by FACS analysis; type: functional, cell-based
[18] = test system: Daudi; assay: Cytotoxicity against human Daudi cells assessed as residual cell viability at 50 uM after 16 hrs by trypan blue exclusion assay relative to control; type: functional
[19] = test system: HeLa; assay: Antiproliferative activity against human HeLa cells at 110 uM assessed as [methyl-3H]thymidine incorporation after 16 hrs by XTT assay relative to control; type: functional, cell-based
[20] = test system: HT-29; assay: Cytotoxicity against multidrug-resistant human HT-29 cells assessed as reduced cell viability at 150 uM by trypan blue exclusion assay relative to control; type: functional
[21] = test system: HT-29; assay: Induction of multidrug-resistant human HT-29 cell death at 150 uM after 16 hrs using propidium iodide staining by fluorescence microscopy; type: functional, cell-based
[22] = Induction of apoptosis in human B-CLL cells assessed as increase in apoptotic cells at 50 uM after 16 hrs by FACS analysis; type: functional
[23] = Cytotoxicity against human B-CLL cells assessed as residual cell viability at 150 uM after 16 hrs by trypan blue exclusion assay relative to control; type: functional
[24] = test system: HT-29; assay: Cytotoxicity against multidrug-resistant human HT-29 cells assessed as inhibition of epithelial-like growth at 150 uM after 16 hrs using propidium iodide staining by phase-contrast microscopy; type: functional, cell-based
[25] = test system: HeLa; assay: Cytotoxicity against human HeLa cells assessed as reduced cell viability at 150 uM by trypan blue exclusion assay relative to control; type: functional
[26] = Induction of apoptosis in human B-CLL cells assessed as increase in apoptotic cells at 100 uM after 16 hrs by FACS analysis; type: functional
[27] = test system: Daudi; assay: Antiproliferative activity against human Daudi cells at 50 uM after 16 hrs by XTT assay; type: functional
[28] = test system: Daudi; assay: Antiproliferative activity against human Daudi cells at <=20 uM assessed as [methyl-3H]thymidine incorporation after 16 hrs by XTT assay relative to control; type: functional
[29] = test system: NCI-N87; assay: Antiproliferative activity against human NCI-N87 at 100 uM assessed as [methyl-3H]thymidine incorporation after 16 hrs by XTT assay relative to control; type: functional, cell-based
[30] = Induction of apoptosis in human B-CLL cells assessed as increase in apoptotic cells at 150 uM after 16 hrs by FACS analysis; type: functional
[31] = Antiproliferative activity against human B-CLL cells assessed as cell viability after 16 hrs by trypan blue exclusion assay; type: functional, cell-based
[32] = test system: HeLa; assay: Cytotoxicity against human HeLa cells assessed as reduced cell viability at 200 uM by trypan blue exclusion assay relative to control; type: functional

SMILES | IC50 [3] [µM] | IC50 [4] [µM] | IC50 [5] [µM] | IC50 [7] [µM] | IC50 [11] [µM] | IC50 [12] [µM] | IC50 [13] [µM] | IC50 [1] [µM] | Activity [2] | IC50 [6] [µM] | Activity [8] [%] | Activity [6] | Activity [7] | Activity [19] | Activity [22] [%] | Activity [13] | Activity [24] | Activity [26] [%] | Activity [28] | Activity [29] | further results
Cn1cnc([N+](=O)[O-])c1Sc1ncnc2[nH]cnc12 [AZATHIOPRINE] | – | – | – | – | – | – | – | 0.23 | – | – | – | – | – | – | – | – | – | – | – | – | –
OC[C@@H]1O[C@H](n2cnc3c(S)ncnc32)[C@@H](O)[C@H]1O | – | – | > 200 | – | 24.8 | 99 | – | – | 75% | – | – | – | – | – | – | – | – | – | – | – | Activity [15]: inactive; Activity [16]: inactive
C=CCS[S+]([O-])CC=C (stereo not drawn) [ALLICIN] | 5.5 | 83.8 | 19.7 | 35.3 | – | – | – | – | – | 16.8 | – | – | – | – | – | – | – | – | – | – | IC50 [17]: 20 µM

Continued, in another order:

IC50 [3] [µM] | IC50 [4] [µM] | IC50 [5] [µM] | IC50 [7] [µM] | IC50 [11] [µM] | IC50 [12] [µM] | IC50 [13] [µM] | SMILES | IC50 [1] [µM] | Activity [2] | IC50 [6] [µM] | Activity [8] [%] | Activity [6] | Activity [7] | Activity [19] | Activity [22] [%] | Activity [13] | Activity [24] | Activity [26] [%] | Activity [28] | Activity [29] | further results
86.1 | > 200 | 113 | 70.8 | 16.9 | 69.1 | > 200 | C=CCSSc1ncnc2c1ncn2[C@H]1O[C@@H](CO)[C@H](O)[C@@H]1O | – | Active | 120 | 70 | – | – | – | – | – | – | – | – | – | Activity [9]: 55%; Activity [10]: 60%; Activity [14]: 25%
42 | – | 46.7 | 38.3 | 8.9 | 54.7 | – | C=CCSSc1ncnc2nc[nH]c12 | – | – | 70.5 | 50 | Dose-dependent effect | Dose-dependent effect | Active | 37.88 | Dose-dependent effect | Active | 95.26 | 50% | Active | Activity [18]: 20%; Activity [20]: 40%; Activity [21]: Active; Activity [23]: 75%; Activity [25]: 65%; Activity [27]: 15%
– | > 200 | > 200 | > 200 | 50.5 | > 200 | > 200 | Sc1ncnc2nc[nH]c12 [MERCAPTOPURINE ANHYDROUS] | 0.149 | 80% | – | – | Dose-dependent effect | Dose-dependent effect | inactive | 9.78 | Dose-dependent effect | inactive | 9.7 | inactive | inactive | Activity [30]: 8.68%; IC50 [31]: > 200 µM; Activity [32]: 75%
